What follows are compounds tested against T1, Type-1 angiotensin II receptor (Oryctolagus cuniculus, UniProt P34976) (assay: pA2 value determined in vitro against angiotensin II receptor, type 1 using rabbit aortic rings). Conditions: read-out: pA2 (converted).
T1 sequence (P34976 whole entry): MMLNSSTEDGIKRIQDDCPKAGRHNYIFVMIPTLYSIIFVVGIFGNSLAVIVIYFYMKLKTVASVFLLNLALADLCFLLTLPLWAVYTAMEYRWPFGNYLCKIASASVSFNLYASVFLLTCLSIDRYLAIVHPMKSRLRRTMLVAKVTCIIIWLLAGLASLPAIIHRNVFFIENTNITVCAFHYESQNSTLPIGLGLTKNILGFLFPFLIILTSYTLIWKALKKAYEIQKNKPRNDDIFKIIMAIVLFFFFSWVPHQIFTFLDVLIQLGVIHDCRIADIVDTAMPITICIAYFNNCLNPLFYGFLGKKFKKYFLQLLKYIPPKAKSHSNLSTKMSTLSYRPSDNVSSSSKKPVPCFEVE

Compound | Kb [nM]
CCc1nc(NCc2ccc(-c3ccccc3-c3nn[nH]n3)cc2)c2c[nH]nc2n1 | 138
CCCCN(Cc1ccc(-c2ccccc2-c2nn[nH]n2)cc1)c1ncnc2c1nc(C#N)n2C | 72.4
CCCN(Cc1ccc(-c2ccccc2-c2nn[nH]n2)cc1)c1ncccc1C(=O)O | 0.0501
CCCCN(Cc1ccc(-c2ccccc2-c2nnn[nH]2)cc1)c1ncnc2nc[nH]c12 | 6.76
CCCCN(Cc1ccc(-c2ccccc2-c2nnn[nH]2)cc1)c1ncnc2ccc(C(=O)O)cc12 | 9.55
CCCCN(Cc1ccc(-c2ccccc2-c2nnn[nH]2)cc1)c1ncnc2c1nc(CC)n2C | 30.2
CCc1nc(NCc2ccc(-c3ccccc3-c3nn[nH]n3)cc2)c2cc(OC)ccc2n1 | 2.63
CCCCN(Cc1ccc(-c2ccccc2-c2nn[nH]n2)cc1)c1ncnc2c1nnn2C | 10.7
CCCN(Cc1ccc(-c2ccccc2-c2nnn[nH]2)cc1)c1ncnc2[nH]cnc12 | 12
CCCCN(Cc1ccc(-c2ccccc2-c2nn[nH]n2)cc1)c1ncnc2c1nc([S+](C)[O-])n2C (stereo not given) | 41.7
CCCCN(Cc1ccc(-c2ccccc2-c2nn[nH]n2)cc1)c1[nH]cnc2nc(C)nc1-2 | 7.76
CCCN(Cc1ccc(-c2ccccc2-c2nn[nH]n2)cc1)c1ncnc2cccc(OC)c12 | > 100
CCCN(Cc1ccc(-c2ccccc2-c2nnn[nH]2)cc1)c1ncnc2cccc(C(=O)O)c12 | > 100
CCc1nc(NCc2ccc(-c3ccccc3-c3nnn[nH]3)cc2)c2c(OC)cccc2n1 | 8.51
CCCCN(Cc1ccc(-c2ccccc2-c2nnn[nH]2)cc1)c1ncnc2cc(C(=O)O)ccc12 | 35.5
CCCCN(Cc1ccc(-c2ccccc2-c2nn[nH]n2)cc1)c1ncnc2c1nc(O)n2C | 29.5
CCCN(Cc1ccc(-c2ccccc2-c2nn[nH]n2)cc1)c1ncnc2c1ncn2Cc1ccccc1 | 151
CCCN(Cc1ccc(-c2ccccc2-c2nnn[nH]2)cc1)c1ncnc2ncn(CC(=O)O)c12 | 74.1
CCCN(Cc1ccc(-c2ccccc2-c2nn[nH]n2)cc1)c1[nH]cnc2nncc1-2 | 339
CCCN(Cc1ccc(-c2ccccc2-c2nnn[nH]2)cc1)c1ncnc2cccc(C(=O)OC)c12 | > 100

Compound | Kb [nM]
CCc1nc(NCc2ccc(-c3ccccc3-c3nn[nH]n3)cc2)c2cc(C(=O)O)ccc2n1 | 2.57
CCCCN(Cc1ccc(-c2ccccc2-c2nn[nH]n2)cc1)c1ncnc2c1ncn2C | 8.32
CCCCN(Cc1ccc(-c2ccccc2-c2nnn[nH]2)cc1)c1ncnc2c1nc(C(N)=O)n2C | > 100
CCc1nc(NCc2ccc(-c3ccccc3-c3nnn[nH]3)cc2)c2ncn(C)c2n1 | 5.13
CCCCN(Cc1ccc(-c2ccccc2-c2nn[nH]n2)cc1)c1ncnc2c1nc(S(C)(=O)=O)n2C | > 100
CCCCN(Cc1ccc(-c2ccccc2-c2nn[nH]n2)cc1)c1ncnc2ccc(C(=O)OC)cc12 | 107
CCCCN(Cc1ccc(-c2ccccc2-c2nn[nH]n2)cc1)c1ncnc2ccc(C(=O)O)nc12 | 6.46
CCc1nc(N(C)Cc2ccc(-c3ccccc3-c3nn[nH]n3)cc2)c2cc(OC)ccc2n1 | 47.9
CCc1nc(NCc2ccc(-c3ccccc3-c3nn[nH]n3)cc2)c2ccccc2n1 | 2.95
CCCN(Cc1ccc(-c2ccccc2-c2nn[nH]n2)cc1)c1ncncc1C(=O)O | 0.117
CCCCN(Cc1ccc(-c2ccccc2-c2nnn[nH]2)cc1)c1ncnc2nccnc12 | 115
CCCCN(Cc1ccc(-c2ccccc2-c2nn[nH]n2)cc1)c1ncnc2ccc(O)cc12 | 87.1
CCCCN(Cc1ccc(-c2ccccc2-c2nnn[nH]2)cc1)c1ncnc2ccc(OC)cc12 | 47.9
CCCN(Cc1ccc(-c2ccccc2-c2nn[nH]n2)cc1)c1ncnc2oc(C)nc12 | 97.7
CCCCN(Cc1ccc(-c2ccccc2-c2nnn[nH]2)cc1)c1ncnc2cccnc12 | 776
CCCCN(Cc1ccc(-c2ccccc2-c2nnn[nH]2)cc1)c1ncnc2c1nc(-c1ccccc1)n2C | > 100
CCCN(Cc1ccc(-c2ccccc2-c2nn[nH]n2)cc1)c1ncnc2ncn(C)c12 | 933
CCCN(Cc1ccc(-c2ccccc2-c2nnn[nH]2)cc1)c1ncnc2c1ncn2CC(=O)O | 7.24
CCCCN(Cc1ccc(-c2ccccc2-c2nn[nH]n2)cc1)c1ncnc2c1nc(C)n2C | 9.33

What follows are compounds tested on Rattus norvegicus (assay: Dose (po) required to normalize blood pressure in renal artery-ligated rats). Conditions: not given.
Assay type: functional

Compound | Dose [mg/kg]
CCCN(Cc1ccc(-c2ccccc2-c2nn[nH]n2)cc1)c1ncccc1C(=O)O | 0.3

— ChEMBL document CHEMBL1127868, “Synthesis and In Vitro evaluation of fused ring heterocyle-containing angiotensin II antagonists” (Bioorg Med Chem Lett, 1994)
